Data on one molecule can be found in article PMC5465257, “Evaluation of JNJ-54717793 a Novel Brain Penetrant Selective Orexin 1 Receptor Antagonist in Two Rat Models of Panic Attack Provocation” (Frontiers in Pharmacology, 2017).

The structures appear in SMILES notation. Like-named read-outs stand apart in the source and are kept apart here.

One data set addresses T1, human OX1R (Homo sapiens, UniProt O43613).
T1 sequence (O43613 1-425): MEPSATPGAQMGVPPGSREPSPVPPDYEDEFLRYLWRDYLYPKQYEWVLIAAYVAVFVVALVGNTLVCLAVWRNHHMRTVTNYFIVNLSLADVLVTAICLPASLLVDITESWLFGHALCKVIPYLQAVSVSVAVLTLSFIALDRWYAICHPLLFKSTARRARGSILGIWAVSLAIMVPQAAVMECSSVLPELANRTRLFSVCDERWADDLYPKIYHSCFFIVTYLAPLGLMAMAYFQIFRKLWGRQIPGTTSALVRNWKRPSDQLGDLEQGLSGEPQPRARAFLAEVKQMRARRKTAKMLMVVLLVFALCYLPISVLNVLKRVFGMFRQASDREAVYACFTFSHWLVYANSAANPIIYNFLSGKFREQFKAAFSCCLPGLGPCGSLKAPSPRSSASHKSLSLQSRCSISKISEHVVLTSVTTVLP
Briefly: Human OX1R competitive radioligand binding ([3H]SB-674042). Also noted: expressed in transfected cells; host or cells: clonal CHO-K1 cells. The protocol:
(§1) Human or rat OX1R binding was measured in competitive radioligand binding assays using [^3H]SB-674042 (1-(5-(2-fluoro-phenyl)-2-methyl-thiazol-4-yl)-1-((S)-2-(5-phenyl-(1,3,4)oxadiazol-2-ylmethyl)-pyrrolidin-l-yl)-methanone) as a tracer (4 nM, specific activity 35 Ci/mmol) as previously described ([Langmead et al., 2004]). Cell membranes were prepared from clonal CHO K1 cells transfected with the human OX1R or clonal HEK-293 cells transfected with the rat OX1R. Dilutions of test compounds were made in Dulbecco’s PBS from 10 mM stocks dissolved in dimethyl sulfoxide. After a 60 min incubation at room temperature, binding reactions were filtered. The membranes were counted in a scintillation counter. Non-specific binding was determined in the presence of 10 μM almorexant. Affinities of compounds for the human OX2R were measured by competitive radioligand binding using tritiated N-ethyl-2-[(6-methoxy-pyridin-3-yl)-(toluene-2-sulfonyl)-amino]-N-pyridin-3-ylmethyl-acetamide (EMPA) (2 nM, specific activity 27 Ci/mmol) ([Malherbe et al., 2009]). Cell membranes were prepared from a stable pool of HEK-293 cells transfected with the human OX2R. Non-specific binding was determined with 10 μM almorexant.
(§2) The Ki of the test compounds was calculated based on non-linear regression (one site competition) using Graphpad Prism. […]

For data set [1], the target named is T2, OX1R in rat brain (tenia tecta) (Rattus norvegicus, UniProt P56718).
T2 construct: Twenty micron thick tissue sections at the level of the tenia tecta were prepared for autoradiography; from tissue; host or cells: brain sections (tenia tecta) of male Sprague-Dawley rats
T2 sequence (P56718 1-416): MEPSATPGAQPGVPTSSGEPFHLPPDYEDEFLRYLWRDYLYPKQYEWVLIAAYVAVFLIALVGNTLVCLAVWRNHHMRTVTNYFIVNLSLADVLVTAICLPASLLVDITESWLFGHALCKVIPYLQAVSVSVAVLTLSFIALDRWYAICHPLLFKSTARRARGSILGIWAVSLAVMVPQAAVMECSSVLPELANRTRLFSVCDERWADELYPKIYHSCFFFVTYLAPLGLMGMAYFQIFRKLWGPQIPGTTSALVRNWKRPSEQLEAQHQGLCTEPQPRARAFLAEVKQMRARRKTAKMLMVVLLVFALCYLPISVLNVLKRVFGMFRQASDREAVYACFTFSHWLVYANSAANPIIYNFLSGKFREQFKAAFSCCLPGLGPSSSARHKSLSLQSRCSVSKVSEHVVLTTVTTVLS
Briefly: Ex vivo OX1R receptor occupancy autoradiography in rat brain (tenia tecta), with plasma bioanalysis. The method, then:
(§3) Experiments were performed as previously described ([Dugovic et al., 2009]) in male Sprague-Dawley rats (300–400 g, Charles River Laboratories, San Diego, CA, United States). The animals were euthanized using carbon dioxide and decapitated at different time points after drug administration (n = 3 per time point or dose regimen). Brains were rapidly frozen on powdered dry ice and stored at -80°C before sectioning. Plasma samples were also collected for bioanalysis (LC–MS/MS). Twenty micron thick tissue sections at the level of the tenia tecta were prepared for autoradiography. OX1R radioligand binding autoradiography was determined at room temperature with 5 nM [^3H]SB-674042. Sections were incubated for 10 min to minimize dissociation. Non-specific binding was determined in the presence of 10 μM SB-674042. Ex vivo receptor labeling was expressed as the percentage of receptor labeling in corresponding brain areas (i.e., tenia tecta) of vehicle-treated animals. The percentage of receptor occupancy was plotted against time or dosage using GraphPad Prism (GraphPad Software, San Diego, CA, United States). Percentage of receptor occupancy was also plotted against drug plasma or brain concentration. Pharmacokinetic parameters were analyzed using a non-compartmental model using the software package WinNonlin Version 4.0.1 (Pharsight, Palo Alto, CA, United States).
(§4) In vivo occupancy of the OX1R was assessed by ex vivo receptor binding autoradiography of [^3H]SB-674042 in rat brain tissue sections at the level of the tenia tecta. Time-dependency and dose-dependency were assessed after oral dosing (Figure 2).

Experiment in data set [2]: as above
The settings on record: male, Sprague-Dawley, plasma. The method, then:
as §3, §4

In data set [3] the target is T2, OX1R in rat brain (tenia tecta). The description is as above. The settings on record: 10 mg/kg subcutaneous; for receptor occupancy at 10 mg/kg: sc.
The target of the next data set is T3, rat OX1R (Rattus norvegicus, UniProt P56718).
T3 sequence (P56718 1-416): T2 sequence (P56718 1-416)
In words: Rat OX1R competitive radioligand binding ([3H]SB-674042). Also noted: expressed in transfected cells; host or cells: clonal HEK-293 cells. The method, then:
as §1, §2

Broadly, the Ki is a measure of affinity in units of concentration, obtained from inhibition or displacement. Lower therefore signals higher affinity. By ED50 is commonly meant the midpoint of the dose-response relation. High values mean a need for a large dose, low ones an effect at a small dose. For `O=C(c1cccc(F)c1-c1ncccn1)N1[C@@H]2CC[C@H]1[C@H](Nc1cnc(C(F)(F)F)cn1)C2` [JNJ-54717793, (1S,2R,4R)-7-([(3-fluoro-2-pyrimidin-2-ylphenyl)carbonyl]-N-[5-(trifluoromethyl)pyrazin-2-yl]-7-azabicyclo[2.2.1]heptan-2-amine)], the Ki on human OX1R was 14.8 nM; on rat OX1R, 14.5 nM. For the same molecule, the “binding selectivity at the human OX1R compared to the human OX2R” value at human OX1R (hOX1R versus hOX2R) turned out to be 50 fold. The “level of OX1R occupancy” value in data set [1] (30 mg/kg oral, after the first 6 h) is given as “negligible”. Further, the receptor occupancy at 30 mg/kg in data set [1] (30 mg/kg oral, first 6 h, read-out: level of OX1R occupancy) was > 58%; in data set [1] (30 mg/kg oral, observed at 15 min, read-out: maximal OX1R occupancy), 87 ± 3%. Further, it took a dose of 1.3 mg/kg to reach the 50% effect level in data set [1] (oral, 60 min after treatment) (ED50). The receptor occupancy at 3 mg/kg in data set [1] (oral, reached at 3 mg/kg, 60 min after treatment, read-out: plateau for maximal OX1R occupancy) lay in the range of 80 to 90%. Also, the concentration at 60 min was 84 ng/mL in data set [2] (1.3 mg/kg, oral, 95% confidence interval 26 to 277 ng/ml, read-out: plasma exposure corresponding to ED50) and ~311 ng/mL in data set [2] (3 mg/kg oral, read-out: plasma concentration at plateau of occupancy). In data set [2] (30 mg/kg oral, 15 min, read-out: plasma concentration at maximal OX1R occupancy), the concentration at 15 min turned out to be 3730 ± 440 ng/mL. The “plasma concentration for maximal receptor occupancy” value in data set [3] came to 2211 ± 339 ng/mL. The receptor occupancy at 10 mg/kg in data set [3] (2 h time point, read-out: OX1R occupancy) amounted to 65%; in data set [3] (observed at 30 min, read-out: maximal OX1R occupancy) it was 83 ± 7%.
